Reference: patent US8835442B2, “3-substituted 7-imino-2-thioxo-3, 7-dihydro-2H-thiazolo [4,5-di pyrimidin-6-yl—and process for preparation thereof” (Council of Scientific & Industrial Research, priority 2009, dated 2014)
Read-outs that look alike come from different tables or passages of the source.

Assays:
human A2AR = human A2AR (Homo sapiens, UniProt P29274); assay: Competitive radioligand binding assay, [3H] ZM 241385, membranes of HEK 293 cells stably expressing human A2AR; conditions: for hA1/hA2A ratio: selectivity: Ki hA1 / Ki hA2A; for selectivity over A1 adenosine receptor: A2AR versus A1R binding
Sequence of human A2AR (P29274 whole entry): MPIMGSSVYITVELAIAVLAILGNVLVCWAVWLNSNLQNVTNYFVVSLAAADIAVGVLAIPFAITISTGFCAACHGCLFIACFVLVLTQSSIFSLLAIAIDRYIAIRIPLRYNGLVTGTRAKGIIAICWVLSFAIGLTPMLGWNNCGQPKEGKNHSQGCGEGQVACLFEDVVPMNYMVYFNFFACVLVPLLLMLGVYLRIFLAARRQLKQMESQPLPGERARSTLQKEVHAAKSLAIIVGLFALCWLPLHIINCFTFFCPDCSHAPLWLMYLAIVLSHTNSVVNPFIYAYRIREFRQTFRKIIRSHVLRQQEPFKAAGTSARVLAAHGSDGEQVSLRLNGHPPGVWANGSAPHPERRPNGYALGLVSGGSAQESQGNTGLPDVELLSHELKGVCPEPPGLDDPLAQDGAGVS
Protocol: (§1) Aliquots of membrane proteins from both A2AR and A1R were rapidly frozen and stored at −20° C.
(§2) About 10 μg of membrane protein was added to each well of multiscreen 96-well plate equipped with GF/B filters. Incubation buffer (50 mM Tris, 1 mM EDTA, pH 7.4) containing adenosine deaminase (1 U/ml) was added to each well to remove endogenous adenosine bound to the receptors and volume was adjusted to 100 μl by adding incubation buffer. Plate was incubated at 37° C. for 1 hour. […] Final volume was adjusted to 200 μl by adding incubation buffer and incubated at 26° C. for 30 minutes. Binding reaction was terminated by rapid filteration of filter plates using vacuum manifold system. Filterate (unbound radioligand) was collected in a 96-well plate laying down the filter plate. Filters were washed three times with ice-cold washing buffer (50 mM Tris-Cl; 2.5 mM MgCl2 pH 7.4). Finally, 100 μl of scintillation fluid was added to all wells of plate containing unbound filtrate as well as to the filter plate (bound radioligand) and incubated overnight at room temperature. […] DPCPX were read using β-counter.
(§3) About 10 μg of membrane protein was added to each well of a 96-well filter plate. Incubation buffer containing adenosine deaminase (1 U/ml) was added to the membrane protein and incubated at 37° C. for 1 hour, to remove endogenous adenosine. […] Filter plates were incubated at 26° C. for 30 minutes and reaction was terminated by rapid filtration of unbound radioligands. Filters containing ligand bound receptors were washed three times with ice-cold washing buffer to completely remove any unbound radioligand or receptor. Finally, 100 μl of scintillation fluid was added to each well and incubated overnight at room temperature. β-counts emitted from bound radioligands ([^3H] ZM241385 and [^3H] DPCPX) were counted using β-counter. Duplicate values of β-counts per minute at corresponding concentrations (1 pM to 1 μM) were added to the data sheet of graph pad prism 4.0. Concentration values were considered as X-values and counts per minute were considered as Y-values (in duplicate). X-values were transformed into logX and Ki value was calculated using nonlinear regression (curve fit program).
(§4) Binding parameters were estimated by the computerized non-linear fitting program Graph Pad (Prism 4.0). […] Data were expressed as geometric means with 95% confidence limits in parentheses. […] P<0.05 was considered significant. All analysis was performed by using GraphPad Prism 4.0 (GraphPad Software, San Diego, USA). Results are given, as mean±S.E.M

A2A receptor = target: T1, A2A receptor (Homo sapiens, UniProt P29274); assay: cAMP functional assay in forskolin-pretreated HEK 293 cells; format: cell-based; conditions: 25 μM forskolin 2 h, then 100 nM compound for 24 h
T1 construct: host or cells: HEK 293
T1 sequence (P29274 whole entry): as above
Protocol: To determine the modulation in cAMP concentrations, cells were pre-treated with Forskolin. Forskolin is commonly used to activate adenylyl cyclase, so as to raise the levels of cAMP, in the various cell physiology experiments. […] Cells were washed with ice-cold PBS (pH 7.4). Further, cells were treated with 0.1M HCl, incubated for 10 minutes and visually inspected to verify cell lysis. Lysed cells were centrifuged at 1000 rpm at room temperature and the supernatant was used directly for cAMP assay using direct cAMP assay kit. All standards and samples were run in duplicate. 50 μl of the neutralizing reagent was added into each well of 96-well microplate coated with goat anti-rabbit IgG antibody, except the total activity (TA) and blank wells. Again, 100 μl of HCl (0.1M) was added into the NSB (Non-specific bound) and the Bo (0 pmol/ml standard) Wells: 100 μl of standards 1 to 5 was pippeted into the appropriate wells. 50 μl of 0.1M HCl was added into the NSB wells, followed by 50 μl of blue conjugate (alkaline phosphatase conjugated with cAMP) into each well except the TA and blank wells. 50 μl of yellow coloured primary antibody against cAMP into each well, except the blank, TA and NSB wells. Microplate was incubated at room temperature for 2 hours on a plate shaker. Wells were washed twice with 400 μl of wash solution. 5 μl of blue conjugate was added to the TA wells, followed by the addition of 200 μl of p-nitrophenyl phosphate substrate solution to every well. Plate was again incubated for 1 hour without shaking. Reaction was stopped by adding 50 μl of stop solution to every well.
The average net O.D. bound for each standard and sample was calculated using formula; Average Net OD=Average bound OD−Average NSB OD
The binding of each pair of standard wells as a percentage of the maximum binding well (Bo) was calculated using the formula; Percent Bound=Net OD/Net Bo OD×100
Standard curve was prepared using Logit-Log Paper plot by drawing percent bound (B/Bo) versus concentration of cAMP for the standards. The concentration of the cAMP in the samples was determined by interpolation.
Binding parameters were estimated by the computerized non-linear fitting program Graph Pad (Prism 4.0). […] Data were expressed as geometric means with 95% confidence limits in parentheses. Estimation of cAMP concentrations in functional assay was carried by Student's paired t-test. P<0.05 was considered significant. All analysis was performed by using GraphPad Prism 4.0 (GraphPad Software, San Diego, USA). Results are given, as mean±S.E.M

human A1R = target: T2, human A1R (Homo sapiens, UniProt P30542); assay: Competitive radioligand binding assay, [3H] DPCPX, membranes of HEK 293 cells stably expressing human A1R
T2 sequence (P30542 1-326): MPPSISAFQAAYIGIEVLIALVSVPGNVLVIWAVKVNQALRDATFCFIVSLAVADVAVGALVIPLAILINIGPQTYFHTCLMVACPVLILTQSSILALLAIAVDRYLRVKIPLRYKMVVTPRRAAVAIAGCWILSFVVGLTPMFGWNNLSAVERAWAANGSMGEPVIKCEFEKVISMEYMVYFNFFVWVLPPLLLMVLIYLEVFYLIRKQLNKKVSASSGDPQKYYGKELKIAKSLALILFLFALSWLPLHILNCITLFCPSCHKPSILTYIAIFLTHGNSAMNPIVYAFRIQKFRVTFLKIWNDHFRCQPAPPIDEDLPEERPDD
Protocol: as §1, §2, §3, §4

[1] = read-out: hA2A binding Ki ± SD, displacement of 1 nM [3H] ZM 241385, HEK 293 membranes, test compounds 1 pM to 1 μM
[2] = read-out: hA1 binding Ki ± SD, displacement of 0.75 nM [3H] DPCPX, HEK 293 membranes, test compounds 1 pM to 1 μM

Compound | Ki (human A2AR) [nM] | hA1/hA2A ratio (human A2AR) | cAMP concentration (A2A receptor) [nM] | melting point [°C] | selectivity over A1 adenosine receptor (human A2AR) [fold] | Ki (human A2AR; [1]) [nM] | Ki (human A1R; [2]) [nM] | Ki (human A1R) [nM]
CCn1c(=S)sc2c(=N)n(NC(N)=O)cnc21 [Compound 15, (3-Ethyl-7-imino-2-thioxo-3,7-dihydro-2H-thiazolo[4,5-d]pyrimidin-6-yl)-urea] | 0.09 ± 0.01 | 0.00177 | 0.085 | 212 | – | – | – | –
CCCn1c(=S)sc2c(=N)n(NC(N)=O)cnc21 [Compound 16] | – | 736.84 | 0.14 | 220 | 766 | 0.0038 ± 0.001 | 2.8 ± 0.8 | –
CCCCn1c(=S)sc2c(=N)n(NC(N)=O)cnc21 [Compound 17, (7-Imino-3-butyl-2-thioxo-3,7-dihydro-2H-thiazolo[4,5-d]pyrimidin-6-yl)-urea] | 0.089 ± 0.01 | 11.685 | 0.083 | 222 | – | – | – | 1.04 ± 0.84
C=CCn1c(=S)sc2c(=N)n(NC(N)=O)cnc21 [Compound 18] | 0.092 ± 0.01 | 5.11 | 0.08 | 202 | – | – | – | 0.47 ± 0.1
CCn1c(=S)sc2c(=N)n(NC(=O)c3ccco3)cnc21 [Compound 22, Furan-2-carboxylic acid (3-ethyl-7-imino-2-thioxo-3,7-dihydro-2H-thiazolo[4,5-d]pyrimidin-6-yl)-amide] | 1.2 ± 1.1 | 0.0133 | 0.12 | 226 | – | – | – | 0.016 ± 0.01
N=c1c2sc(=S)n(-c3ccccc3)c2ncn1NC(=O)c1ccco1 [Compound 26, Furan-2-carboxylic acid (7-imino-3-phenyl-2-thioxo-3,7-dihydro-2H-thiazolo[4,5-d]pyrimidin-6-yl)-amide] | 0.33 ± 0.75 | 0.026 | 0.048 | 228 | – | – | – | 0.0085 ± 0.001
Furan-2-carboxylic acid (7-imino-3-propenyl-2-thioxo-3,7-dihydro-2H-thiazolo[4,5-d]pyrimidin-6-yl)-amide [Compound 25] | – | 3.47 | 0.084 | – | – | 0.17 ± 0.1 | 0.59 ± 0.11 | –

Now from value to compound:

Ki (human A2AR) [nM] | hA1/hA2A ratio (human A2AR) | cAMP concentration (A2A receptor) [nM] | melting point [°C] | selectivity over A1 adenosine receptor (human A2AR) [fold] | Ki (human A2AR; [1]) [nM] | Ki (human A1R; [2]) [nM] | Ki (human A1R) [nM] | Compound
0.063 ± 0.008 | 23.81 | 0.078 | 225 | – | – | – | 1.5 ± 1.1 | N=c1c2sc(=S)n(-c3ccccc3)c2ncn1NC(N)=O [Compound 19, (7-Imino-3-phenyl-2-thioxo-3,7-dihydro-2H-thiazolo[4,5-d]pyrimidin-6-yl)-urea]
0.017 ± 0.01 | 147.06 | 0.076 | 235 | 144 | – | – | 2.5 ± 1.1 | N=c1c2sc(=S)n(-c3ccc(I)cc3)c2ncn1NC(N)=O [Compound 20, (3-p-iodophenyl-7-imino-2-thioxo-3,7-dihydro-2H-thiazolo[4,5-d]pyrimidin-6-yl)-urea]
0.023 ± 0.014 | 6.09 | 0.067 | 190 | – | – | – | 0.14 ± 0.086 | N=c1c2sc(=S)n(Cc3ccccc3)c2ncn1NC(N)=O [Compound 21, (3-Benzyl-7-imino-2-thioxo-3,7-dihydro-2H-thiazolo[4,5-d]pyrimidin-6-yl)-urea]
0.024 ± 0.01 | 3.625 | 0.092 | 206 | – | – | – | 0.087 ± 0.05 | CCCn1c(=S)sc2c(=N)n(NC(=O)c3ccco3)cnc21 [Compound 23, Furan-2-carboxylic acid (7-imino-3-propyl-2-thioxo-3,7-dihydro-2H-thiazolo[4,5-d]pyrimidin-6-yl)-amide]
0.029 ± 0.01 | 0.183 | 0.06 | 210 | – | – | – | 0.0053 ± 0.001 | CCCCn1c(=S)sc2c(=N)n(NC(=O)c3ccco3)cnc21 [Compound 24, Furan-2-carboxylic acid (3-butyl-7-imino-2-thioxo-3,7-dihydro-2H-thiazolo[4,5-d]pyrimidin-6-yl)-amide]
